We go through one substance from patent publication US20240398831A1, “COMPOSITIONS COMPRISING SMALL MOLECULE REGULATORS OF TUMOR IMMUNITY AND METHODS OF USING SAME” (Duke University, priority 2021, published 2024).

What all share (type): cell-based, mouse
In assay [1] the test system is CD3+ T cells. Description: T cells co-cultured with tumor infiltrating CD11b+ myeloid cells from iBP tumors. The conditions noted are these: myeloid cells from E2 vs placebo treated mice, 72 hr. As for the experimental part: T cell proliferation assay and staining. CD3+ T cells were isolated from the spleens of C57BL/6J or P-mel mice with magnetic bead-based T cell isolation kit (Cat #19851, StemCell Technologies). T cells from naïve mice were stained with 5 μM CFSE (Cat #C34554, ThermoFisher Scientific) for 5 minutes in PBS+5% CFS with rapid vortexing following which the cells were washed twice with PBS. Stained T cells were then counted and plated in 96-well plates coated with anti-CD3 antibody (0.5 μg/mL, Cat #19851, ThermoFisher Scientific) anti-CD28 antibody (1 μg/mL, Cat #16-0281-86, Thermo Fisher Scientific) at desired density (250,000 T cells/50,000 CD11b or BMDM) in the presence of IL2 (50 ng/mL) (Cat #212-12, PeproTech). 72 hr after plating the cells were incubated with protein transport inhibitors brefeldin (Cat #00-4506-51, Thermo Fisher Scientific) and monensin (Cat #00-4505-51, Thermo Fisher Scientific) for 6 hr at a final concentration of 2 μM monensin and 3 μg/mL brefeldin after which they were collected and were processed for staining for flow cytometry.
These cells were then co-incubated with CD3^+ T cells isolated from the spleens of non-tumor bearing Pmel mice (Thy1^a/Cy Tg(TcraTcrb)8Rest/J) for 72 hr. iBP tumors express gp100 (Pmel) that can be processed and presented by professional antigen presenting cells to T cells that are specific to the antigen (gp100). Prior to coincubation, T cells were stained with the Carboxyfluorescein succinimidyl ester (CFSE) dye and activated in the presence of sub-optimal CD3/CD28. […] In this experiment, the phenotypic characteristics of the isolated myeloid cells were not defined, i.e., bone marrow derived vs resident macrophages.

Assay [2] concerns B16F10 cells. The assay can be described thus: Quantitative PCR of ER target genes in melanoma cells. The conditions noted are these: E2 1 nM, 16 hr.
Assay [3] has as its system YuMM5.2 cells. The assay is described as above. The conditions noted are these: E2 1 nM, 16 hr.

As to 17β-estradiol [E2], in assay [1], the “T cell (both CD4+ and CD8+) proliferation, CFSE dye dilution” value is “significantly inhibited”; the “expression of IFNγ in CD8+ and CD4+ T cells” value was “decreased expression”; the “expression of granzyme B (GZMB) in CD8+ and CD4+ T cells” value is listed as “decreased expression”. For the same substance, the “expression of classical ER target genes (Pgr and Cxc112)” value in assay [2] is “did not lead to changes”. Moreover, the “expression of classical ER target genes (Pgr and Cxc112)” value in assay [3] is listed as “did not lead to changes”.
